This assay can be described thus: Inhibition of ADP-induced platelet aggregation in canine platelet-rich plasma.

Consider two molecules from BindingDB's records for doi:10.1021/jm00099a027 (Smithkline Beecham Pharmaceuticals, 1992).

Bridge positions count the residues as written; N and C are the ends. Square brackets hold non-standard residues; d marks the D form. Peptide text beside a SMILES is read from it. NMeR = CN[C@@H](CCCNC(=N)N)C(=O)O

By IC50 is commonly meant the midpoint of a concentration-inhibition curve. A higher IC50 goes with weaker potency. The molecule `CC(=O)N(C)C(CCCNC(=N)N)C(=O)NCC1=CC(CC(=O)O)C(=O)N(c2ccccc2)CC1` (configuration not stated) gave a half-maximal inhibitory concentration (IC50) of 720 nM. `CC(=O)N[C@H]1CSSC[C@@H](C(N)=O)NC(=O)[C@H](CC(=O)O)NC(=O)CNC(=O)[C@H](CCCN=C(N)N)N(C)C1=O` [SKF-106760] (Ac-C[NMeR]GDC-NH2; disulfide 1-5) came in with a half-inhibitory concentration (IC50) of 360 nM.
